Measurements taken from patent publication US20210371451A1, “CYCLIC-DI-AMP SODIUM SALT CRYSTAL” (Yamasa Corporation, priority 2018, published 2021).
Read-outs that look alike come from different tables or passages of the source.

Legend:
[1] = assay type: physicochemical; conditions: for purity of crystal by HPLC: 105° C.
Protocol: The purity of the c-di-AMP sodium salt in the crystal α obtained in Example 1 was analyzed by high performance liquid chromatography. As a result, the purity of c-di-AMP was 100%. Note that the high performance liquid chromatography was performed under the following conditions.
Column: Hydrosphere C18 (manufactured by YMC, Inc.)
Eluent: 0.1 M TEA-P (pH 6.0)+4.5% ACN
Detection method: detection at UV260 nm
The crystals obtained in the above Example 1, Example 2, Example 4, and Reference Example were allowed to stand under conditions at 105° C. Some crystals were sampled over time, and an aqueous solution was prepared therefrom. Then, the purity of each crystal was analyzed by high performance liquid chromatography. FIG. 18 and Table 6 show the results obtained.

[2] = pH 5
Protocol: The purified c-di-AMP was used to prepare a c-di-AMP aqueous solution with an OD257 of 2500 and at a pH of 5.0, 5.2, 5.4, 5.6, 5.8, 6.0, or 6.5. Each resulting c-di-AMP solution (0.2 mL) with an OD257 of 2500 was heated to 30° C. Next, 1 mL of 99.5% (w/w) ethanol was gently added. The mixture was then tightly sealed and allowed to stand overnight or for several days at 30° C. to precipitate crystals. The resulting crystals so precipitated were filtered through a membrane filter to yield wet crystals.
Dilution allowed for preparation of a c-di-AMP aqueous solution at a low concentration.

Row | Molecule | stability under severe conditions [1] | purity of crystal by HPLC ([1]; Day 0) | purity of crystal by HPLC ([1]; Day 1) | purity of crystal by HPLC ([1]; Day 2) | purity of crystal by HPLC ([1]; Day 3) | purity of crystal by HPLC ([1]; Day 4) | purity of crystal by HPLC ([1]; Day 5) | solubility [2] | purity of crystal by HPLC ([1]; Day 1, sodium salt) | purity of crystal by HPLC ([1]; Day 2, sodium salt) | purity of crystal by HPLC ([1]; Day 3, sodium salt) | purity of crystal by HPLC ([1]; Day 4, sodium salt) | purity of crystal by HPLC ([1]; Day 5, sodium salt)
1 | Nc1ncnc2c1ncn2[C@@H]1O[C@@H]2COP(=O)(O)O[C@H]3[C@@H](O)[C@H](n4cnc5c(N)ncnc54)O[C@@H]3COP(=O)(O)O[C@H]2[C@H]1O [Reference Example, c-di-AMP free acid, reference compound] | decreased stability | 100.00% | 91.81% | 88.82% | 86.46% | 86.31% | 85.42% |  |  |  |  |  | 
2 | Nc1ncnc2c1ncn2[C@@H]1O[C@@H]2COP(=O)(O)O[C@H]3[C@@H](O)[C@H](n4cnc5c(N)ncnc54)O[C@@H]3COP(=O)(O)O[C@H]2[C@H]1O [c-di-AMP, Cyclic-di-AMP] |  |  |  |  |  |  |  | low |  |  |  |  | 
3 | c-di-AMP sodium salt [Example 1] |  | 100.00% |  |  |  |  |  |  | 98.75% | 97.98% | 97.98% | 97.87% | 97.15%
4 | c-di-AMP sodium salt [Example 2] |  | 100.00% |  |  |  |  |  |  | 99.02% | 98.73% | 98.63% | 99.02% | 98.09%
5 | c-di-AMP sodium salt [Example 4] |  | 100.00% |  |  |  |  |  |  | 99.65% | 99.35% | 99.14% | 99.09% | 98.93%
